In the NIST ThermoML archive (doi:10.1021/je0498356):
Numbers after ± are expanded uncertainties.

Settings: Liquid

| Structure (SMILES) | Critical pressure [kPa] | Critical temperature [K] |
| --- | --- | --- |
| O=C(O)CCCCCCC(=O)O [1,8-octanedioic acid] | 2970 ± 120 | 843 ± 13 |
| O=C(O)CCCCC(=O)O [1,6-hexanedioic acid] | 3850 ± 150 | 841 ± 13 |
| O=C(O)CCCC(=O)O [1,5-pentanedioic acid] | 4270 ± 200 | 840 ± 13 |
| O=C(O)CCCCCCCC(=O)O [1,9-nonanedioic acid] | 2720 ± 110 | 844 ± 13 |
| O=C(O)CCCCCC(=O)O [1,7-heptanedioic acid] | 3280 ± 130 | 842 ± 13 |
| O=C(O)CCCCCCCCC(=O)O [1,10-decanedioic acid] | 2500 ± 100 | 845 ± 13 |

The next lines start with the values.

| Critical pressure [kPa] | Critical temperature [K] | Structure (SMILES) |
| --- | --- | --- |
| 2150 ± 90 | 859 ± 13 | O=C(O)CCCCCCCCCCC(=O)O [1,12-dodecanedioic acid] |
| 1900 ± 80 | 862 ± 13 | O=C(O)CCCCCCCCCCCCC(=O)O [1,12-dodecanedicarboxylic acid] |
| 6590 ± 300 | 851 ± 20 | O=C(O)CCC(=O)O [butanedioic acid] |
